Reference: ChEMBL document CHEMBL5214928, “DEAD-Box Helicase DDX3X as a Host Target against Emerging Viruses: New Insights for Medicinal Chemical Approaches” (J Med Chem, 2022)

Key:
[1] = target: T1, ATP-dependent RNA helicase DDX3X (Homo sapiens, UniProt O00571); experiment: Binding affinity to DDX3X (unknown origin) assessed as inhibition constant
[2] = target: T1, ATP-dependent RNA helicase DDX3X; experiment: Inhibition of DDX3X (unknown origin) helicase activity
[3] = Half life in mouse administered intravenously; format: ADME; conditions: in vivo, route iv
Hepatitis C virus = experiment: Antiviral activity against HCV-1 infected in human LucUbiNeo-ET cells assessed as reduction in viral replication incubated for 2 days by luminometry; format: functional, organism-based, Hepacivirus hominis; conditions: genotype 1, LucUbiNeo-ET, 48 h
[4] = Cytotoxicity against human LucUbiNeo-ET cells assessed as reduction in cell viability by MTT assay; format: functional
[5] = Selectivity index, ratio of CC50 for human LucUbiNeo-ET cells to EC50 for HCV-1 infected in human LucUbiNeo-ET cells; format: toxicity, cell-based; conditions: read-out: Ratio CC50/EC50
[6] = Cytotoxicity against hamster BHK-21 cells assessed as reduction in cell viability at MOI of 0.01 incubated for 48 hrs by plaque formation assay; format: toxicity, cell-based, Mesocricetus auratus
[7] = Selectivity index, ratio of CC50 for hamster BHK-21 cells to EC50 for JEV SA14-14-2 infected in hamster BHK-21 cells; format: toxicity, cell-based; conditions: read-out: Ratio CC50/EC50
[8] = tested on: Japanese encephalitis virus; experiment: Antiviral activity against JEV SA14-14-2 infected in hamster BHK-21 cells assessed as reduction in viral replication by plaque formation assay; format: functional, organism-based; conditions: SA14-14-2, BHK-21
[9] = tested on: Human immunodeficiency virus 1; experiment: Antiviral activity against recombinant HIV-1 infected in CD4+ human HeLa cells assessed as reduction in viral replication; format: functional, organism-based; conditions: Human immunodeficiency virus 1, HeLa
HeLa = experiment: Cytotoxicity against human HeLa cells assessed as reduction in cell viability incubated for 72 hrs with replacement of medium containing compound for every 24 hrs by MTS based Cell Titer 96 viability assay; format: functional
[10] = Selectivity index, ratio of CC50 for human HeLa cells to EC50 for recombinant HIV-1 infected in CD4+ human HeLa cells; format: toxicity, cell-based; conditions: read-out: Ratio CC50/EC50
[11] = target: T1, ATP-dependent RNA helicase DDX3X; experiment: Inhibition of recombinant DDX3X (unknown origin) helicase activity using 6-FAM-labeled dsRNA as substrate incubated for 30 mins by fluorescence based assay

T1 sequence (O00571 whole entry): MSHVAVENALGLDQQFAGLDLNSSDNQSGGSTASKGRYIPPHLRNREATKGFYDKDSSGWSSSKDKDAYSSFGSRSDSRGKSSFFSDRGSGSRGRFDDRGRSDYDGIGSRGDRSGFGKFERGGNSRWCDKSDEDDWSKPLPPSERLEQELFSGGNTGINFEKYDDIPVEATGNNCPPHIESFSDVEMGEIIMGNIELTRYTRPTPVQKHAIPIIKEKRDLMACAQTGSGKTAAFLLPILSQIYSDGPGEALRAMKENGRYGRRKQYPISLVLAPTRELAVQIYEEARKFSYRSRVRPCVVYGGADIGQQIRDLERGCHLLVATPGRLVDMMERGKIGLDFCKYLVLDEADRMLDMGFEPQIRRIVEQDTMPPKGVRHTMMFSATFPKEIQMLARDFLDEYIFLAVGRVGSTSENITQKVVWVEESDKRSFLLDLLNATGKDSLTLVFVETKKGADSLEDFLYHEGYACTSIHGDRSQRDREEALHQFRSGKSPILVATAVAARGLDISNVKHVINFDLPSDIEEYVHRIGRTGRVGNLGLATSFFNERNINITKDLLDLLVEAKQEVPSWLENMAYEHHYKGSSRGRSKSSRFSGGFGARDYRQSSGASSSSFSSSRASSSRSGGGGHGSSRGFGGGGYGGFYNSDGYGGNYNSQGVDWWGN

## Cc1cccc(NC(=O)CCN2C(=O)/C(=C/c3ccccc3O)SC2=S)c1
[1]
  Ki: 97000 nM

## CCCCc1cn(-c2ccc(NC(=O)Nc3ccc(C)nc3)cc2)nn1
[2]
  IC50: 1500 nM

## CC(=O)Nc1ccc(/C=N/Nc2nc(NCc3ccccc3)nc(Nc3ccccc3)n2)cc1
[1]
  Ki: 500 nM

## COc1ccc(/C=C2\SC(=S)N(CCC(=O)Nc3cccc(O)c3)C2=O)cc1
[1]
  Ki: 2000 nM

## CC(C)Cc1cn(-c2ccc(NC(=O)Nc3ccc4cnccc4c3)cc2)nn1
[3]
  half-life: 5 h
Hepatitis C virus
  EC50: 900 nM
[4]
  CC50: > 312000 nM
[5]
  selectivity ratio: 94
[2]
  IC50: 150 nM

## CCCCc1cn(-c2ccc(NC(=O)Nc3ccccc3F)cc2)nn1
[2]
  IC50: 600 nM

## CC(=O)Nc1ccc(/C=N/Nc2nc(Nc3ccccc3)nc(NN3CCOCC3)n2)cc1
[1]
  Ki: 2200 nM

## Cc1ccccc1NC(=O)Nc1ccc(-n2cc(CO)nn2)cc1
[2]
  Ki: 17500 nM

## Cc1ccc(Nc2nc(N/N=C/c3ccccc3O)nc(NN3CCOCC3)n2)cc1Cl
[1]
  Ki: 1600 nM

## Cc1ccccc1NC(=O)Nc1cccc([N+](=O)[O-])c1
[6]
  CC50 at 48 h: > 50000 nM
[7]
  selectivity ratio: > 5
[8]
  EC50: 10000 nM

## CC(=O)Nc1ccc(/C=N/Nc2nc(Nc3ccccc3)nc(Nc3ccccc3)n2)cc1
[9]
  EC50: 2000 nM
HeLa
  CC50: 10000 nM
[10]
  selectivity ratio: 5
[1]
  Ki: 300 nM

## O=C(CCN1C(=O)/C(=C/c2ccccc2O)SC1=S)Nc1cc(F)cc(F)c1
[1]
  Ki: 500 nM

## O=C(CCN1C(=O)/C(=C/c2cccc(Br)c2)SC1=S)Nc1cccc(O)c1
[1]
  Ki: 90000 nM

## O=[N+]([O-])c1cccc(S(=O)(=O)Nc2ccccc2O)c1
[11]
  IC50: 360 nM

## CCCCc1cn(-c2ccc(NC(=O)Nc3ccccc3OC3CCCC3)cc2)nn1
[2]
  IC50: 140 nM

## O=C(CCN1C(=O)/C(=C/c2ccc3c(c2)OCO3)SC1=S)Nc1ccccc1[N+](=O)[O-]
[1]
  Ki: 1000 nM

## O=C(CCN1C(=O)/C(=C/c2cccc(F)c2)SC1=S)Nc1ccccc1O
[1]
  Ki: 7600 nM

## COc1cc(/C=C2\SC(=S)N(CCC(=O)Nc3ccccc3Cl)C2=O)cc(OC)c1OC
[1]
  Ki: 100 nM

## O=C(NCCN1C(=O)/C(=C/c2ccccc2O)SC1=S)c1cccc(Br)c1
[1]
  Ki: 4200 nM

## C(=N\Nc1nc(Nc2ccccc2)nc(Nc2ccccc2)n1)/c1ccccc1
[1]
  Ki: 7500 nM
